Assay results as given in PubChem BioAssay (NCI).
Values joined by “and” are separate entries in the source; they are usually repeats but may differ in a detail not shown here. Equal values may be shown once.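 Step 1: Grow cells in 96-well plates. Step 2: Expose to compound for 48 hours at 5 concentrations. Step 3: Interpolate endpoints linearly; if unreached, use highest concentration. The concentration for 50% growth inhibition is given as GI50. TGI is the concentration that stops growth completely.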

What was measured:
Assay in all cases: inhibition of tumour cell growth, NCI panel, 48 h
MDA-MB-435 = test system: MDA-MB-435
SNB-19 CNS = test system: SNB-19 CNS
HCC-2998 colon = test system: HCC-2998 colon
DU-145 prostate = test system: DU-145 prostate
HCT-116 colon = test system: HCT-116 colon
TK-10 renal = test system: TK-10 renal
SK-MEL-28 melanoma = test system: SK-MEL-28 melanoma
UO-31 renal = test system: UO-31 renal
786-0 renal = test system: 786-0 renal
HOP-62 NSCLC = test system: HOP-62 NSCLC

SMILES	TGI (MDA-MB-435)	TGI (SNB-19 CNS)	TGI (HCC-2998 colon)	TGI (DU-145 prostate)	TGI (HCT-116 colon)	TGI (TK-10 renal)	TGI (SK-MEL-28 melanoma)	TGI (UO-31 renal)	TGI (786-0 renal)	TGI (HOP-62 NSCLC)	GI50 (MDA-MB-435) [µM]	GI50 (SNB-19 CNS) [µM]	GI50 (HCC-2998 colon) [µM]	GI50 (DU-145 prostate) [µM]	GI50 (HCT-116 colon) [µM]	GI50 (TK-10 renal) [µM]	GI50 (SK-MEL-28 melanoma) [µM]	GI50 (UO-31 renal) [µM]	GI50 (HOP-62 NSCLC) [µM]
CC(=O)Oc1ccc2c(c1)[nH]c1c3ccc(OC(C)=O)cc3oc(=O)c21	> 100 µM	> 100 µM	67.7 µM	> 100 µM	78.1 µM	> 100 µM	> 100 µM	> 100 µM	> 100 µM	> 100 µM									
C=C1N(C)c2ccc(S(=O)(=O)c3ccc4c(c3)C(C)(C)C(=C)N4C)cc2C1(C)C	> 100 µM	> 100 µM	> 100 µM	> 100 µM	> 100 µM	> 100 µM	> 100 µM	> 100 µM	> 100 µM	> 100 µM									
CC(CC(=O)N1C2CC3CCC2(CS1(=O)=O)C3(C)C)[Si](C)(C)C (centres undefined)	> 100 µM	> 100 µM	> 100 µM	> 100 µM	> 100 µM	> 100 µM	> 100 µM	> 100 µM	> 100 µM	> 100 µM									
OC1C2CCCCN2C[C@@H](O)[C@H]1O (some centres undefined)	> 100 µM	> 100 µM	> 100 µM	> 100 µM	> 100 µM	> 100 µM	> 100 µM	> 100 µM	> 100 µM	> 100 µM									
Cc1ccc(NC(=O)c2cccc(OP(=O)(Nc3ccc(C)cc3)Nc3ccc(C)cc3)c2)cc1	> 100 µM	> 100 µM	> 100 µM	> 100 µM	80.8 µM	83.4 µM	> 100 µM	45.3 µM	> 100 µM	> 100 µM									
c1ccc2c(c1)nc1ccccn12	> 100 µM	> 100 µM	> 100 µM	> 100 µM	> 100 µM	> 100 µM	> 100 µM	> 100 µM	> 100 µM	> 100 µM									
CNC(=O)O/N=C1\N(C)CN(c2ccccc2)C12CCN(CCCC(=O)c1ccc(F)cc1)CC2	> 100 µM	> 100 µM	> 100 µM	> 100 µM	> 100 µM	> 100 µM	> 100 µM	> 100 µM	> 100 µM	> 100 µM									
N#Cc1c(C#N)c(SSc2c(C#N)c(C#N)c(N)n2-c2cccc3ccccc23)n(-c2cccc3ccccc23)c1N	36.5 µM	46.4 µM	85.8 µM	47.6 µM	14.1 µM	40.9 µM	> 100 µM	6.02 µM	4.26 µM	49.9 µM									
Cc1cc(NS(=O)(=O)c2ccc(NO)cc2)no1	41.4 µM	> 100 µM	> 100 µM	> 100 µM	> 100 µM	> 100 µM	> 100 µM	> 100 µM	> 100 µM	> 100 µM									
Cc1c2c(n3c(nc4ccccc43)c1C#N)N(c1ccc(F)cc1)CC2	> 100 µM	> 100 µM	> 100 µM	> 100 µM	> 100 µM	> 100 µM	> 100 µM	> 100 µM	> 100 µM	> 100 µM									
CC1(C)CC(=O)c2c(-c3ccc(Cl)cc3)c(C#N)c(=S)n(C3OC(CO)C(O)C(O)C3O)c2C1 (centres undefined)	80.8 µM	> 100 µM	> 100 µM	> 100 µM	> 100 µM	> 100 µM	> 100 µM	98.8 µM	> 100 µM	> 100 µM									
COc1ccc2nc3c4c(nccc4c2c1)-c1ncccc1C3=O	0.148 µM	0.279 µM	0.805 µM	0.023 µM	0.467 µM	0.613 µM	0.655 µM	0.706 µM	0.208 µM	0.402 µM									
Cn1c2ncccc2n2c(=O)cc(O)cc12	> 100 µM	> 100 µM	> 100 µM	> 100 µM	> 100 µM	> 100 µM	> 100 µM	> 100 µM	> 100 µM	> 100 µM									
Nc1ccc(-c2nc3ccccc3s2)cc1CO	> 100 µM	> 100 µM	> 100 µM	> 100 µM	> 100 µM	> 100 µM	> 100 µM	> 100 µM	> 100 µM	> 90.4 µM									
CC(C)(C)OC(=O)N(O)CCCn1cnc2c(NC3CC3)ncnc21	> 100 µM	> 100 µM	> 100 µM	> 100 µM	> 100 µM	> 100 µM	> 100 µM	> 100 µM	> 100 µM	> 100 µM									
O=C(Nc1ccccc1)OCCN=c1c2ccccc2ccc2ccccc12	79.6 µM	62.7 µM	25.1 µM	> 100 µM	35.9 µM	> 100 µM	60.9 µM	39.9 µM	> 100 µM	> 100 µM									
COc1ccc2nc3ccc(OC)cc3c(S(=O)Cc3ccccc3)c2c1 (centres undefined)	27.8 µM	41.5 µM	38.4 µM	5.85 µM	6.3 µM	19.4 µM	27.2 µM	22.8 µM	4.78 µM	33.4 µM									
O=C(Nn1c(-c2ccccc2)nc2ccccc2c1=O)c1cccc([N+](=O)[O-])c1	> 100 µM	> 100 µM	> 100 µM	> 100 µM	> 100 µM	> 100 µM	> 100 µM	> 100 µM	> 100 µM	> 100 µM									
COc1cccc(CCn2c(N)c(-c3cc(Cl)cc(Cl)c3)c3ccc([N+](=O)[O-])cc3c2=O)c1	> 100 µM	> 44 µM	> 31.6 µM	> 25.3 µM	12.7 µM	> 100 µM	> 100 µM	25.5 µM	> 100 µM	> 100 µM									
CCC1(c2ccc(OC)c(OC)c2)CCN(S(=O)(=O)c2ccc(C)cc2)C1 (centres undefined)	> 100 µM	> 100 µM	> 100 µM	> 100 µM	> 100 µM	> 100 µM	> 10 µM	> 100 µM	> 100 µM	> 100 µM									
COC(=O)CN1Cc2cc(C)cc(c2O)CN(CC(=O)OC)Cc2cc(C)cc(c2O)CN(CC(=O)OC)Cc2cc(C)cc(c2O)CN(CC(=O)OC)Cc2cc(C)cc(c2O)C1	50 µM and > 100 µM	50 µM and > 100 µM	50 µM and > 100 µM	50 µM and > 100 µM	50 µM and > 100 µM	50 µM and > 100 µM	50 µM and > 100 µM	50 µM and > 100 µM	50 µM and > 100 µM	47.8 µM and > 100 µM	45.9	18.3	25.2	33.3	27.7	> 100	27.9	33.8	23.3
CC(=O)N1C(c2[nH]c3ccccc3c2Cc2ccccc2)CCN1c1ccccc1 (centres undefined)	> 10 µM	> 10 µM	> 10 µM	> 10 µM	> 10 µM	> 10 µM	> 10 µM	> 10 µM	> 10 µM	> 10 µM									
O=C1c2ccccc2C(=O)c2c1oc1cc(O)c(Cl)cc21	3.34 µM	28 µM	14.8 µM	13.5 µM	15.1 µM	38.5 µM	7.62 µM	26.6 µM	20.9 µM	21.7 µM									
CN1N=C(c2ccncc2)OC1c1cccc(F)c1 (centres undefined)	> 100 µM	> 100 µM	> 100 µM	> 100 µM	> 100 µM	> 100 µM	> 100 µM	> 100 µM	> 100 µM	> 100 µM									
COC1(OC)CCN(Cc2ccccc2)C1=O	29.8 µM	34.9 µM	34 µM	29.2 µM	13.9 µM	29.7 µM	23.3 µM	22.8 µM	15.7 µM	38.6 µM									
CC/C(Cl)=N\OC(=O)Nc1ccc(F)c(Cl)c1	39.4 µM	20.7 µM	35.3 µM	34.2 µM	35.3 µM	31.3 µM	30.1 µM	32.3 µM	18 µM	34.3 µM									
